Experimental findings from the Kinase Knowledgebase extract (Sharma et al. 2016) are described below.

In one test the target is PIK3CG (human) (UniProt P48736). Put plainly: Inhibition of PIK3CG Kinase Activity.
The target in another test is PIK3CA (human) (UniProt P42336). Put plainly: Inhibition of PIK3CA Kinase Activity.
The target of another test is PIK3CB (Human) (UniProt P42338). Briefly: Inhibition of PIK3CB Kinase Activity.
The target in the next test is PIK3CD (Human) (UniProt O00329). Put plainly: Inhibition of PIK3CD Kinase Activity.
Chain of PIK3CD (Human) (O00329 whole entry, looked up): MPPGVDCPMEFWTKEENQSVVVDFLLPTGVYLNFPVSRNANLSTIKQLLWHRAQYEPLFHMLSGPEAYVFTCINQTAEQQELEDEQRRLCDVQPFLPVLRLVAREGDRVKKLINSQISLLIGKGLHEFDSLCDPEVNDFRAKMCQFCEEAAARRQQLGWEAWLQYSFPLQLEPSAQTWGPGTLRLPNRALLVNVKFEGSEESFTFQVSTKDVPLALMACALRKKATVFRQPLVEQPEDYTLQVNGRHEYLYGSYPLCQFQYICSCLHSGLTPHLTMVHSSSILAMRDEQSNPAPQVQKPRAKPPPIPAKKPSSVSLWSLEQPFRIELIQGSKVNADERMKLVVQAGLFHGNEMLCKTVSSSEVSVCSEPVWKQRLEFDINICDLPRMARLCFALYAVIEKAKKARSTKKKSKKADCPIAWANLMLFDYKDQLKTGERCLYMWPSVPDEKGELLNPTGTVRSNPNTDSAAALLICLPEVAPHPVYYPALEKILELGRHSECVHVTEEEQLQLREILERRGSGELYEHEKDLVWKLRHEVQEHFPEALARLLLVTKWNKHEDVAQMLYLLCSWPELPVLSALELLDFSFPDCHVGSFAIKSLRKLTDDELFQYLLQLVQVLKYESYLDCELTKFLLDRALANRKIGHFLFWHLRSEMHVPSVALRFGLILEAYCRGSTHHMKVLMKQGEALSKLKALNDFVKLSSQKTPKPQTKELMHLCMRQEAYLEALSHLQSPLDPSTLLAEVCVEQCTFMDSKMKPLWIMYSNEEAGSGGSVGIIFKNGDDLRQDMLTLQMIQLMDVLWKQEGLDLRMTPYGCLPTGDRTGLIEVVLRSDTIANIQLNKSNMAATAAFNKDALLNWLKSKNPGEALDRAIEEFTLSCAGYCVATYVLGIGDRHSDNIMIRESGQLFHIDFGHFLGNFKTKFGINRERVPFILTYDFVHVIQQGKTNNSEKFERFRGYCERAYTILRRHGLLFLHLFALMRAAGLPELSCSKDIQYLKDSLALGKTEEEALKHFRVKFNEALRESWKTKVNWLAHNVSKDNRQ

Chain of PIK3CB (Human) (P42338 whole entry, looked up): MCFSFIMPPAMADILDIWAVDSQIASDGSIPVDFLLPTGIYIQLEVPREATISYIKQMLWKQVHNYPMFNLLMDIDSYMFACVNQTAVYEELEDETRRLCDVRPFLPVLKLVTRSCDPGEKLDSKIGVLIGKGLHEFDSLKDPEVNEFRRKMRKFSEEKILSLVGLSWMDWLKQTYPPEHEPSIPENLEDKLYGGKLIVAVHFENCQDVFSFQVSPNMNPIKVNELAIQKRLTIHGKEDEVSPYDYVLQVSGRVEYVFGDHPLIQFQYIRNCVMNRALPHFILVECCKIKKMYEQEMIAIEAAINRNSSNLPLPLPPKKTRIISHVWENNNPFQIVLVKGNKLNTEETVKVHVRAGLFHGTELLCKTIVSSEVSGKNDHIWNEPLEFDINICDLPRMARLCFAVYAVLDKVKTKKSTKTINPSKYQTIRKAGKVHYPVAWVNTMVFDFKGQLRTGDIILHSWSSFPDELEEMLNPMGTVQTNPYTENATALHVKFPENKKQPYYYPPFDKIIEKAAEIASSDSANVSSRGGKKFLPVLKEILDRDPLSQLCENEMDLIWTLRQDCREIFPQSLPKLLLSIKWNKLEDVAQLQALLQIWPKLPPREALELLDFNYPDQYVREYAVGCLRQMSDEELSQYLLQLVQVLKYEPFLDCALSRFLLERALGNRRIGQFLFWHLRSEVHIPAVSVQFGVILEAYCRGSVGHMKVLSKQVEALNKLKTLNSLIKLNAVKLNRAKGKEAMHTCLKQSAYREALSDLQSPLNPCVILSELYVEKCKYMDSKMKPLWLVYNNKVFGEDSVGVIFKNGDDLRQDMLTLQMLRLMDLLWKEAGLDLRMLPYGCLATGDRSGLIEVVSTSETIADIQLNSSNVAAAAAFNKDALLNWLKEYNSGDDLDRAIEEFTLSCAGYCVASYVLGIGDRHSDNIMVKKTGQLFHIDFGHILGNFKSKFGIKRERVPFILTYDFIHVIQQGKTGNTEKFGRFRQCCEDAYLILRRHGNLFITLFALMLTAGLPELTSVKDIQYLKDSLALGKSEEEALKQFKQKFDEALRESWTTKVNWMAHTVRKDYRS
Chain of PIK3CA (human) (P42336 whole entry, looked up): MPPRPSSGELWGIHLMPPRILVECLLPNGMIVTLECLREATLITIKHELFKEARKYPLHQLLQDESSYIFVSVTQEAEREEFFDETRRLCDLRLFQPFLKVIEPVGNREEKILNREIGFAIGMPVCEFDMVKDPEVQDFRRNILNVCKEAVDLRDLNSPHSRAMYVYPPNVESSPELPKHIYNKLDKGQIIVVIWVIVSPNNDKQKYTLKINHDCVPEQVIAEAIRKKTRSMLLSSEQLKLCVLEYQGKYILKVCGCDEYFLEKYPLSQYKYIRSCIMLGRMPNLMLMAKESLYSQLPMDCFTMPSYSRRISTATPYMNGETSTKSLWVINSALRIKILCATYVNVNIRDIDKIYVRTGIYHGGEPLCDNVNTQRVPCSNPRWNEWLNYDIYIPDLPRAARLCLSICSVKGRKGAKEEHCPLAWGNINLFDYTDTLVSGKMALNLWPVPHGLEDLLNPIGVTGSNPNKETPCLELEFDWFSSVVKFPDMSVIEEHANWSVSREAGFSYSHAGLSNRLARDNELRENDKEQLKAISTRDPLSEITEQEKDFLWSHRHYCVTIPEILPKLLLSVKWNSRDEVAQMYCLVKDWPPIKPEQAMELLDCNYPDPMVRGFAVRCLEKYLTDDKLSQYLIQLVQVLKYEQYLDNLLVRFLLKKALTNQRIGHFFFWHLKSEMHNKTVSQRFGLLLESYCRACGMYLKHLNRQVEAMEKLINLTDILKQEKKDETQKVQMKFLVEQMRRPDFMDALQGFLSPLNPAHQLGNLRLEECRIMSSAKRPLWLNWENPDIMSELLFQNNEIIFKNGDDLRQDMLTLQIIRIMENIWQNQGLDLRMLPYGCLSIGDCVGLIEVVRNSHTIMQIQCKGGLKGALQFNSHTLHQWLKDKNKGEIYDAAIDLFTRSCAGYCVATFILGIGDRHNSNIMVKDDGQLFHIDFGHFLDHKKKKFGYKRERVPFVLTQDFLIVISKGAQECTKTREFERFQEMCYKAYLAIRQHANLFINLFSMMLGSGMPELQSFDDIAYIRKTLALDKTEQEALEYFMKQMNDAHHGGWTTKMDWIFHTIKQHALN
Chain of PIK3CG (human) (P48736 whole entry, looked up): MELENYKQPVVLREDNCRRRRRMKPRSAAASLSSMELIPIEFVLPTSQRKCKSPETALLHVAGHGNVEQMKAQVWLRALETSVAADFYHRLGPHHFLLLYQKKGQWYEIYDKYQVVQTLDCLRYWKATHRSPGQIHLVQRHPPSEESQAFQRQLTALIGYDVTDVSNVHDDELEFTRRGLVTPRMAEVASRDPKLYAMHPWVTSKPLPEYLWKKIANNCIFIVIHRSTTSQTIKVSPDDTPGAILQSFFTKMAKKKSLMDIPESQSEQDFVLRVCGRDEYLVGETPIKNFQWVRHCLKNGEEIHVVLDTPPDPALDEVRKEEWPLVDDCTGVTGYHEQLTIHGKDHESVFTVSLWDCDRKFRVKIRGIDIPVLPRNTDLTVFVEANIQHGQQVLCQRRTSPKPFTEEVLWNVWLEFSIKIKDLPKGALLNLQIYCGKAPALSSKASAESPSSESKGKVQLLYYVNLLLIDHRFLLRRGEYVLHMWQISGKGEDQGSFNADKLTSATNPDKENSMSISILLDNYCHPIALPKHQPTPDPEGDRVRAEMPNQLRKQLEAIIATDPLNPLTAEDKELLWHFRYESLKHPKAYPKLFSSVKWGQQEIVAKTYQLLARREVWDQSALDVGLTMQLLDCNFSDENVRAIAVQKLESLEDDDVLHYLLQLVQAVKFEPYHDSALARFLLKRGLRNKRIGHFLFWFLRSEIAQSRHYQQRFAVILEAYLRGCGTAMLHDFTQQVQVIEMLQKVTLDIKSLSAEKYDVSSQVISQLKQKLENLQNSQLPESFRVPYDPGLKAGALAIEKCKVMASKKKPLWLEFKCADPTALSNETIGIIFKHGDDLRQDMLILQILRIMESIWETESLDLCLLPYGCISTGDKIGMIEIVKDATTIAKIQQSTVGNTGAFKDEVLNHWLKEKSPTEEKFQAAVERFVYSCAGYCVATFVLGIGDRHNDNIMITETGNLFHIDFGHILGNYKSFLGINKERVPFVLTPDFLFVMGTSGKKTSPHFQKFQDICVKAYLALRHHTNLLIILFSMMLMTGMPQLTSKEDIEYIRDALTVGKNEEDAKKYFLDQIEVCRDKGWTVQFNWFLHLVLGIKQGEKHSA

As a reminder, the IC50 is the concentration at which inhibition is half-maximal. As to `Cc1cc(NCc2ccccc2)c2nc(N3CCOCC3)cc(=O)n2c1`, the values for the IC50 against PIK3CG (human), on PIK3CA (human) and at PIK3CB (Human) were > 10 µM, 50 nM and 50 nM, respectively.

`O=c1c2c(Cl)cccc2nc(CSc2ncnc3[nH]cnc23)n1-c1ccccc1-c1ccccc1`: the IC50 is > 2 µM against PIK3CG (human), > 2000 nM on PIK3CA (human), 50 nM at PIK3CD (Human) and > 2000 nM against PIK3CB (Human).

On to `Cc1cc(F)ccc1Oc1cccc2c(=O)cc(N3CCOCC3)[nH]c12`, for which the IC50 at PIK3CA (human) and at PIK3CB (Human) was 20 nM throughout.

For `O=c1c(O)c(-c2ccc(O)c(O)c2)oc2cc(O)cc(O)c12`, the IC50 against PIK3CA (human) worked out at 3800 nM.
